In patent publication US20200164100A1, “SURGICAL METHODS EMPLOYING PURIFIED AMPHIPHILIC PEPTIDE COMPOSITIONS” (priority 2013, published 2020):

System: signal transduction system of living organisms
Assay: Cell culture experiments on bioactivity of the main constituent peptide
Assay type: cell-based
Conditions: data not shown

CH3CO-(Arg-Ala-Asp-Ala)4-NH2
bioactivity by acting on the signal transduction system of living organisms: does not exhibit bioactivity
